Reference: patent US20130096135A1, “Selected Inhibitors of Protein Tyrosine Kinase Activity” (METHYLGENE INC., priority 2011, published 2013)
pIC50: −log10 of the molar value.

Target: T1, VEGF receptor KDR (VEGFR2) (Homo sapiens, UniProt P35968)
T1 construct: made in house; host or cells: Sf9 cells (Spodoptera frugiperda), baculovirus
Test: In vitro receptor tyrosine kinase assay (VEGF receptor KDR), DELFIA
Assay type: biochemical
Conditions: recombinant GST-VEGFR2 (806-1356), ATP 0.6 uM, enzyme 5 nM; read-out: VEGFR_IC50_UM
Excerpt: In Vitro Receptor Tyrosine Kinase Assay (VEGF receptor KDR)
This test measures the ability of compounds to inhibit the enzymatic activity of recombinant human VEGF receptor enzymatic activity.
A 1.6-kb cDNA corresponding to the catalytic domain of VEGFR2 (KDR) (Genbank accession number AF035121 amino acid 806 to 1356) is cloned into the Pst I site of the pDEST20 Gateway vector (Invitrogen) for the production of a GST-tagged version of that enzyme. This construct is used to generate recombinant baculovirus using the Bac-to-Bac™ system according to the manufacturer's instructions (Invitrogen).
The GST-VEGFR2806-1356 protein is expressed in Sf9 cells (Spodoptera frugiperda) upon infection with recombinant baculovirus construct. Briefly, Sf9 cells grown in suspension and maintained in serum-free medium (Sf900 II supplemented with gentamycin) at a cell density of about 2×10^6 cells/ml are infected with the above-mentioned viruses at a multiplicity of infection (MOI) of 0.1 during 72 hours at 27° C. with agitation at 120 rpm on a rotary shaker. Infected cells are harvested by centrifugation at 398g for 15 min. Cell pellets are frozen at −80° C. until purification is performed.
All steps described in cell extraction and purification are performed at 4° C. Frozen Sf9 cell pellets infected with the GST-VEGFR2806-1356 recombinant baculovirus are thawed and gently resuspended in Buffer A (PBS pH 7.3 supplemented with 1 μg/ml pepstatin, 2 μg/ml Aprotinin and leupeptin, 50 μg/ml PMSF, 50 μg/ml TLCK and 10 μM E64 and 0.5 mM DTT) using 3 ml of buffer per gram of cells. Suspension is Dounce homogenized and 1% Triton X-100 is added to the homogenate after which it is centrifuged at 22500 g, 30 min., 4 °C. The supernatant (cell extract) is used as starting material for purification of GST-VEGFR2806-1356.
The supernatant is loaded onto a GST-agarose column (Sigma) equilibrated with PBS pH 7.3. Following a four column volume (CV) wash with PBS pH 7.3+1% Triton X-100 and 4 CV wash with buffer B (50mM Tris pH 8.0, 20% glycerol and 100mM NaCl), bound proteins are step eluted with 5 CV of buffer B supplemented with 5 mM DTT and 15 mM glutathion. GST-VEGFR2806-1356 enriched fractions from this chromatography step are pooled based on U.V. trace i.e. fractions with high 0.D.280. Final GST-VEGFR2806-1356 protein preparations concentrations are about 0.7 mg/ml with purity approximating 70%. Purified GST-VEGFR2806-1356 protein stocks are aliquoted and frozen at −80° C. prior to use in enzymatic assay.
Inhibition of VEGFR/KDR is measured in a DELFIATM assay (Perkin Elmer). The substrate poly(Glu4, Tyr) is immobilized onto black high-binding polystyrene 96-well plates. The coated plates are washed and stored at 4° C. During the assay, the enzyme is pre-incubated with inhibitor and Mg-ATP on ice in polypropylene 96-well plates for 4 minutes, and then transferred to the coated plates. The subsequent kinase reaction takes place at 30° C. for 10-30 minutes. ATP concentrations in the assay are 0.6 uM for VEGFR/KDR (2× the Km). Enzyme concentration is 5 nM. After incubation, the kinase reactions are quenched with EDTA and the plates are washed. Phosphorylated product is detected by incubation with Europium-labeled anti-phosphotyrosine MoAb. After washing the plates, bound MoAb is detected by time-resolved fluorescence in a Gemini SpectraMax reader (Molecular Devices). Compounds are evaluated over a range of concentrations, and IC50 values (concentration of compounds giving 50% inhibition of enzymatic activity) are determined.

T1 sequence (P35968 806-1356): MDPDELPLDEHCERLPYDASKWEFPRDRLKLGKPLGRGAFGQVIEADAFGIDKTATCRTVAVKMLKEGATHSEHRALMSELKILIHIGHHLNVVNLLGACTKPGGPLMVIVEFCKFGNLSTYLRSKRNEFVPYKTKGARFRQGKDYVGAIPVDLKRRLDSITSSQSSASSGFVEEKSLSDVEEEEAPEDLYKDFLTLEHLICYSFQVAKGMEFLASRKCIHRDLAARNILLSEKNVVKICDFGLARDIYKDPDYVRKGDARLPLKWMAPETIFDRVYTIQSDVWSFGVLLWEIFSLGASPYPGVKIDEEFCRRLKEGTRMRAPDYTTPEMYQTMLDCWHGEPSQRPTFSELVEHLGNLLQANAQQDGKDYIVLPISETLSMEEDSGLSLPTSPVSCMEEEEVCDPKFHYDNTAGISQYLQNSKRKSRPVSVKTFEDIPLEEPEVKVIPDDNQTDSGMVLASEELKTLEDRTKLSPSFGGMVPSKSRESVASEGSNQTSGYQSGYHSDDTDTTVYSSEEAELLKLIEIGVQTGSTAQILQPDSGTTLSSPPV

Row | Structure (SMILES) | pIC50
1 | O=C(Nc1ccc(Oc2ccnc3cc(-c4ccc(CN5CCN(C(=O)COC(=O)CCCC[C@H]6SC[C@H]7NC(=O)N[C@H]76)CC5)cn4)sc23)c(F)c1)NC1CC1 [Compound 120, 2-(4-((6-(7-(4-(3-Cyclopropylureido)-2-fluorophenoxy)thieno[3,2-b]pyridin-2-yl)pyridin-3-yl)methyl)piperazin-1-yl)-2-oxoethyl 5-((3aR,4R,6aS)-2-oxohexahydro-1H-thieno[3,4-d]imidazol-4-yl)pentanoate] | 7.68
2 | CN(C)CCN(C)C(=O)C1CCCN(Cc2ccc(-c3cc4nccc(Oc5ccc(NC(=O)NC6CC6)cc5F)c4s3)nc2)C1 (stereo not drawn) [Compound 4, 1-((6-(7-(4-(3-Cyclopropylureido)-2-fluorophenoxy)thieno [3,2-b]pyridin-2-yl)pyridin-3-yl)methyl)-N-(2-(dimethylamino)ethyl)-N-methylpiperidine-3-carboxamide] | 8.10
3 | CN(C)CCNC(=O)[C@H]1CCCN(Cc2ccc(-c3cc4nccc(Oc5ccc(NC(=O)NC6CC6)cc5F)c4s3)nc2)C1 [Compound 13, (S)-1-((6-(7-(4-(3-Cyclopropylureido)-2-fluorophenoxy)thieno[3,2-b]pyridin-2-yl)pyridin-3-yl)methyl)-N-(2-(dimethylamino)ethyl)piperidine-3-carboxamide] | 8.10
4 | CNCCNC(=O)C1CCCN(Cc2ccc(-c3cc4nccc(Oc5ccc(NC(=O)NC6CC6)cc5F)c4s3)nc2)C1 (stereo not drawn) [Compound 5, 1-((6-(7-(4-(3-Cyclopropylureido)-2-fluorophenoxy)thieno[3,2-b]pyridin-2-yl)pyridin-3-yl)methyl)-N-(2-(methylamino)ethyl)piperidine-3-carboxamide] | 8.10
5 | CCCC(=O)OCC(=O)N1CCN(Cc2ccc(-c3cc4nccc(Oc5ccc(NC(=O)NC6CC6)cc5F)c4s3)nc2)CC1 [Compound 79, 2-(4-((6-(7-(4-(3-Cyclopropylureido)-2-fluorophenoxy)thieno[3,2-b]pyridin-2-yl)pyridin-3-yl)methyl)piperazin-1-yl)-2-oxoethyl butyrate] | 7.72
6 | COCCOC(=O)N1CCN(Cc2ccc(-c3cc4nccc(Oc5ccc(NC(=O)NC6CC6)cc5F)c4s3)nc2)CC1 [Compound 76, 2-Methoxyethyl 4-((6-(7-(4-(3-cyclopropylureido)-2-fluorophenoxy)thieno[3,2-b]pyridin-2-yl)pyridin-3-yl)methyl)piperazine-1-carboxylate] | 8.10
7 | COCCOCCOC(=O)N1CCN(Cc2ccc(-c3cc4nccc(Oc5ccc(NC(=O)NC6CC6)cc5F)c4s3)nc2)CC1 [Compound 75, 2-(2-Methoxyethoxy)ethyl 4-((6-(7-(4-(3-cyclopropylureido)-2-fluorophenoxy)thieno[3,2-b]pyridin-2-yl)pyridin-3-yl)methyl)piperazine-1-carboxylate] | 7.80
8 | CC(=O)SCC(=O)N1CCN(Cc2ccc(-c3cc4nccc(Oc5ccc(NC(=O)NC6CC6)cc5F)c4s3)nc2)CC1 [Compound 22, S-2-(4-((6-(7-(4-(3-Cyclopropylureido)-2-fluorophenoxy)thieno[3,2-b]pyridin-2-yl)pyridin-3-yl)methyl)piperazin-1-yl)-2-oxoethyl ethanethioate] | 7.82
9 | CC(=O)OCC(=O)OCC(=O)N1CCN(Cc2ccc(-c3cc4nccc(Oc5ccc(NC(=O)NC6CC6)cc5F)c4s3)nc2)CC1 [Compound 34, 2-(4-((6-(7-(4-(3-Cyclopropylureido)-2-fluorophenoxy)thieno[3,2-b]pyridin-2-yl)pyridin-3-yl)methyl)piperazin-1-yl)-2-oxoethyl 2-acetoxyacetate] | 8.30
10 | COCCOCCOCC(=O)NC1CCN(Cc2ccc(-c3cc4nccc(Oc5ccc(NC(=O)NC6CC6)cc5F)c4s3)nc2)CC1 [Compound 31] | 7.77
11 | O=C(Nc1ccc(Oc2ccnc3cc(-c4ccc(CN5CCCC(C(=O)NC[C@@H](O)CO)C5)cn4)sc23)c(F)c1)NC1CC1 (stereo partly drawn) [Compound 9, 1-((6-(7-(4-(3-Cyclopropylureido)-2-fluoro-phenoxy)thieno[3,2-b]pyridin-2-yl)pyridin-3-yl)methyl)-N-((R)-2,3-dihydroxypropyl)piperidine-3-carboxamide] | 7.96
12 | C[C@@H]1CN(Cc2ccc(-c3cc4nccc(Oc5ccc(NC(=O)NC6CC6)cc5F)c4s3)nc2)CCN1CCO [Compound 119, (R)-1-cyclopropyl-3-(3-fluoro-4-(2-(5-((4-(2-hydroxyethyl)-3-methylpiperazin-1-yl)methyl)pyridin-2-yl)thieno[3,2-b]pyridin-7-yloxy)phenyl)urea] | 8.10

Continued by rising pIC50, values first:

Row | pIC50 | Structure (SMILES)
13 | 8.15 | C[C@@H]1CN(Cc2ccc(-c3cc4nccc(Oc5ccc(NC(=O)NC6CC6)cc5F)c4s3)nc2)CCN1C(=O)CO [Compound 33]
14 | 8.15 | CN(C)CCNC(=O)[C@@H]1CCCN(Cc2ccc(-c3cc4nccc(Oc5ccc(NC(=O)NC6CC6)cc5F)c4s3)nc2)C1 [Compound 10, (R)-1-((6-(7-(4-(3-Cyclopropylureido)-2-fluorophenoxy)thieno[3,2-b]pyridin-2-yl)pyridin-3-yl)methyl)-N-(2-(dimethylamino)ethyl)piperidine-3-carboxamide]
15 | 8.15 | CN(C)[C@H]1CCN(C(=O)C2CCCN(Cc3ccc(-c4cc5nccc(Oc6ccc(NC(=O)NC7CC7)cc6F)c5s4)nc3)C2)C1 (stereo partly drawn) [Compound 6, 1-Cyclopropyl-3-(4-(2-(5-((3-((S)-3-(dimethylamino)pyrrolidine-1-carbonyl)piperidin-1-yl)methyl)pyridin-2-yl)thieno[3,2-b]pyridin-7-yloxy)-3-fluorophenyl)urea]
16 | 8.22 | COCC(=O)N1CCN(Cc2ccc(-c3cc4nccc(Oc5ccc(NC(=O)NC6CC6)cc5F)c4s3)nc2)CC1 [Compound 32, 1-Cyclopropvl-3-(3-fluoro-4-(2-(5-((4-(2-methoxyacetyl)piperazin-1-yl)methyl)pyridin-2-yl)thieno[3,2-b]pyridin-7-yloxy)phenyl)urea]
17 | 8.22 | CN(CCO)C(=O)[C@@H]1CCCN(Cc2ccc(-c3cc4nccc(Oc5ccc(NC(=O)NC6CC6)cc5F)c4s3)nc2)C1 [Compound 12, (R)-1-((6-(7-(4-(3-Cyclopropylureido)-2-fluorophenoxy)thieno[3,2-b]pyridin-2-yl)pyridin-3-yl)methyl)-N-(2-hydroxyethyl)-N-methylpiperidine-3-carboxamide]
18 | 8.30 | CNCC(=O)N1CCN(Cc2ccc(-c3cc4nccc(Oc5ccc(NC(=O)NC6CC6)cc5F)c4s3)nc2)CC1 [Compound 28, 1-Cyclopropyl-3-(3-fluoro-4-(2-(5-((4-(2-(methylamino)acetyl)piperazin-1-yl)methyl)pyridin-2-yl)thieno[3,2-b]pyridin-7-yloxy)phenyl)urea]
19 | 8.30 | C[C@@H](O)CN1CCN(Cc2ccc(-c3cc4nccc(Oc5ccc(NC(=O)NC6CC6)cc5F)c4s3)nc2)CC1 [Compound 29, (R)-1-Cyclopropyl-3-(3-fluoro-4-(2-(5-((4-(2-hydroxypropyl)piperazin-1-yl)methyl)pyridin-2-yl)thieno[3,2-b]pyridin-7-yloxy)phenyl)urea]
20 | 8.40 | C[C@@H]1CN(C(=O)CO)CCN1Cc1ccc(-c2cc3nccc(Oc4ccc(NC(=O)NC5CC5)cc4F)c3s2)nc1 [Compound 26, (R)-1-Cyclopropyl-3-(3-fluoro-4-(2-(5-((4-(2-hydroxyacetyl)-2-methylpiperazin-1-yl)methyl)pyridin-2-yl)thieno[3,2-b]pyridin-7-yloxy)phenyl)urea]
21 | 8.52 | O=C(Nc1ccc(Oc2ccnc3cc(-c4ccc(CN5CCCC(C(=O)N6CC[C@H](O)C6)C5)cn4)sc23)c(F)c1)NC1CC1 (stereo partly drawn) [Compound 8, 1-Cyclopropyl-3-(3-fluoro-4-(2-(5-((3-((S)-3-hydroxypyrrolidine-1-carbonyl)piperidin-1-yl)methyl)pyridin-2-yl)thieno[3,2-b]pyridin-7-yloxy)phenyl)urea]
